Test results as given in US4376768A, “Benzothiazine derivative” (priority 1980, dated 1983).
Where two headings read alike, the source gives them in different places.

What was measured:
[1] = in vivo; settings: for selectivity ratio: rat, in vivo, po
Description: (§1) Anti-inflammatory activity was tested as follows: Male rats of the Wistar strain were used in groups of 7. A test compound was suspended in a 0.2% carboxymethyl cellulose solution and orally administered in a dose of 0.5 ml/100 g of body weight. […] Three hours after injection of carrageenin, each rat was sacrificed by ether. The feet of both hind legs were amputated at the ankle joint and weighed to detect the difference in weight between both feet. Then, the ability of the test compound to suppress the carrageenin-induced edema was evaluated by comparing the foot weight difference of the test group with that of a control group (consisting of rats to which the solvent alone was administered). Specifically, the rate of suppression of the edema was calculated according to the following equation: [formula]
The incidence of gastric disorders in rats was tested as follows: Eight-weeks-old male rats of the Wistar strain were used in groups of 5 to 7. After they were fasted for 18 hours or more, a test compound was administered orally. Six hours later, each rat was sacrificed by decapitation. The stomach was removed, filled with 10 ml of physiological saline, and then fixed in 5% formalin. After about 10 minutes, the stomach was incised through the greater curvature and the presence or absence of gastric disorders (in particular, erosion) was examined by visual observation. According to Litchfield-Wilcoxon's method, the dose causing erosion to occur in 50% of the test animals, UD50, was calculated on an all-or-none basis.

[2] = Incidence of gastric disorders (erosion) in rats; format: in vivo, male rats of the Wistar strain; settings: rat, in vivo, po
Excerpt: (§2) Six hours later, each rat was sacrificed by decapitation.

[3] = in vivo; format: in vivo; settings: mouse, in vivo; Table 1; mice, oral, 7 days; read-out: Acute toxicity, LD50
[4] = tested on: mice; experiment: in vivo; format: in vivo; settings: Table 5; for Number of deaths / total number of test animals: p.o.; for LD50: observed for 7 days
[5] = tested on: carrageenin-induced edema; experiment: Anti-inflammatory activity: suppression of carrageenin-induced edema in the rat hind foot; format: in vivo, male rats of the Wistar strain
[6] = Safety margin LD50/ED50; settings: for Safety margin, LD50/ED50: Table 1
Description: as §1
A test compound was suspended in a 0.2% carboxymethyl cellulose solution and orally administered in a dose of 0.1 ml/10 g of body weight. […] The LD50 value was calculated on the basis of the death rates on the final day.

[7] = tested on: carrageenin-induced edema; experiment: Duration of anti-inflammatory activity (carrageenin edema at varied premedication times); format: in vivo, male rats of the Wistar strain; settings: for Rate of suppression of edema in rats premedicated at various times: Table 3, dose = ED50
Excerpt: The premedication time was defined as the time interval between the administration of a test compound and the injection of carrageenin.

[8] = prior art, in words; cited from earlier work
[9] = tested on: gastric disorders (erosion); experiment: Incidence of gastric disorders (erosion) in rats; format: in vivo, male rats of the Wistar strain; settings: Table 1; rats, oral
Excerpt: as §2

[10] = in words, among the compounds of Table 1

Row | SMILES | selectivity ratio [1] | Safety margin compared with indomethacin and diclofenac ([6]; in words) | Rate of suppression of edema in rats premedicated at various times ([7]; premedication 1 hr.) [%] | Rate of suppression of edema in rats premedicated at various times ([7]; premedication 3 hr.) [%] | Rate of suppression of edema in rats premedicated at various times ([7]; premedication 6 hr.) [%] | Rate of suppression of edema in rats premedicated at various times ([7]; premedication 24 hr.) [%] | Rate of suppression of edema in rats premedicated at various times ([7]; premedication 48 hr.) [%] | LD50 [4] | also measured
1 | Cc1cccc(NC(=O)C2C(=O)c3ccccc3S(=O)(=O)N2C)n1 (centres unmarked) [6-Methyl-2-pyridyl compound, N-(6-methyl-2-pyridyl)-3,4-dihydro-2-methyl-4-oxo-2H-1,2-benzothiazine-3-carboxamide 1,1-dioxide] | 1.1 | – | – | – | – | – | – | – | –
2 | CN1C(C(=O)Nc2cccc(Cl)n2)C(=O)c2ccccc2S1(=O)=O (centres unmarked) [Compound of formula (1), N-(6-chloro-2-pyridyl)-3,4-dihydro-2-methyl-4-oxo-2H-1,2-benzothiazine-3-carboxamide 1,1-dioxide] | 30.8 | superior | 55.7 | 54.9 | 48.3 | 22.6 | 9.8 | – | TD50 at 6 h [2]: 200 mg/kg; LD50 at 168 h [3]: 4000 mg/kg; Number of deaths / total number of test animals ([4]; 1,000 mg/kg): 0/5; Number of deaths / total number of test animals ([4]; 3,000 mg/kg): 2/5; Number of deaths / total number of test animals ([4]; 5,000 mg/kg): 3/5; inhibition in vivo at 2 mg/kg ([5]; Rattus norvegicus, po, 3 h, Table 2, 2.0 mg/kg, p.o., read-out: Rate of suppression of edema): 19.4%; inhibition in vivo at 4 mg/kg ([5]; Rattus norvegicus, po, 3 h, Table 2, 4.0 mg/kg, p.o., read-out: Rate of suppression of edema): 43.6%; inhibition in vivo at 8 mg/kg ([5]; Rattus norvegicus, po, 3 h, Table 2, 8.0 mg/kg, p.o., read-out: Rate of suppression of edema): 50.6%; inhibition in vivo at 16 mg/kg ([5]; Rattus norvegicus, po, 3 h, Table 2, 16.0 mg/kg, p.o., read-out: Rate of suppression of edema): 71%; ED50 ([5]; Rattus norvegicus, po, read-out: Dose producing 50% suppression, ED50, Table 2, carrageenin 1 h after compound, read 3 h later): 6.5 mg/kg; ED50 ([5]; Table 1, rat carrageenin edema, oral, read-out: Anti-inflammatory activity, ED50): 6.5 mg/kg; Anti-inflammatory activity ([5]; in words): potent and long-lasting; selectivity ratio ([6]; in vivo, po): 615; Degree of safety ([6]; in words): very high degree of safety; Safety margin [6, 10]: remarkably high; Therapeutic index compared with indomethacin and diclofenac ([1]; in words): superior; Therapeutic index [1, 10]: remarkably high; Rate of suppression of edema in rats premedicated at various times ([7]; premedication 12 hr.): 40.3%; Duration of anti-inflammatory activity ([7]; in words): excellent
3 | O=C(O)Cc1ccccc1Nc1c(Cl)cccc1Cl [Diclofenac] | – | – | 45.9 | 24.7 | 17.6 | -1.2 | – | – | –
4 | COc1ccc2c(c1)c(CC(=O)O)c(C)n2C(=O)c1ccc(Cl)cc1 [Indomethacin] | 1.2 | – | 49.4 | 57.6 | 29.4 | -3.5 | – | – | Safety margin, LD50/ED50 [6]: 3.7; Rate of suppression of edema in rats premedicated at various times ([7]; premedication 12 hr.): 18.8%
5 | Cc1cc(NC(=O)C2C(=O)c3ccccc3S(=O)(=O)N2C)no1 (centres unmarked) [Isoxicam, 3,4-dihydro-2-methyl-N-(5-methyl-3-isoxazolyl)-4-oxo-2H-1,2-benzothiazine-3-carboxamide 1,1-dioxide] | – | superior | – | – | – | – | 1.1 | 5,000 mg/kg, p.o. | Anti-inflammatory activity compared with Piroxicam and Sudoxicam [8]: lower
6 | CN1C(C(=O)Nc2ccccn2)C(=O)c2ccccc2S1(=O)=O (centres unmarked) [Piroxicam, 3,4-dihydro-2-methyl-4-oxo-N-(2-pyridyl)-2H-1,2-benzothiazine-3-carboxamide 1,1-dioxide] | – | superior | – | – | 40.0 | – | 1.7 | 490 mg/kg, p.o. | Anti-inflammatory activity [8]: potent and long-lasting
7 | CN1C(C(=O)Nc2nccs2)C(=O)c2ccccc2S1(=O)=O (centres unmarked) [Sudoxicam, 3,4-dihydro-2-methyl-4-oxo-N-(2-thiazolyl)-2H-1,2-benzothiazine-3-carboxamide 1,1-dioxide] | 2.3 | superior | – | – | – | – | -2.4 | 500 mg/kg, p.o. | Gastric disorders, UD50 [9]: 11.8 mg/kg; Anti-inflammatory activity [8]: potent and long-lasting; Degree of toxicity and incidence of gastric disorders compared with indomethacin and diclofenac [8]: not appreciably different; Safety margin, LD50/ED50 [6]: 98; Therapeutic index compared with indomethacin and diclofenac ([1]; in words): superior
